This is an account of results in patent publication US11376254B2, “Positive allosteric modulators of the muscarinic acetylcholine receptor M4” (Vanderbilt University, priority 2017, dated 2022).

For data set [1] the following is noted: without causing catalepsy; cited from earlier work.
The conditions of data set [2]: Alzheimer's disease patients; delusions, suspiciousness, vocal outbursts, hallucinations; cited from earlier work.
Data set [3] has as its target T1, Human M4 (Homo sapiens, UniProt P08173).
T1 sequence (P08173 1-479): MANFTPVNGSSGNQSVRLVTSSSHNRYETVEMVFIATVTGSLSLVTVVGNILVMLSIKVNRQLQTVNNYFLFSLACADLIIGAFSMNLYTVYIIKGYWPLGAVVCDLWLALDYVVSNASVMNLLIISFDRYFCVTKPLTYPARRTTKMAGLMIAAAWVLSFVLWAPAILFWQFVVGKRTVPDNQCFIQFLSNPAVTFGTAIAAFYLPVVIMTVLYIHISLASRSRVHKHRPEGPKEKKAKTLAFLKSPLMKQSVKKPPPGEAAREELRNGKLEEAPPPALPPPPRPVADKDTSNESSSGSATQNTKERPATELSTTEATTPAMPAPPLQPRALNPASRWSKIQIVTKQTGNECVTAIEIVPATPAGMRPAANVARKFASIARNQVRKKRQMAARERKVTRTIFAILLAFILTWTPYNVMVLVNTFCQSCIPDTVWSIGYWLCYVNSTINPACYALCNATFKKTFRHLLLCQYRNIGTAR
The data set can be described thus: mAChR M4 cell-based functional assay (calcium flux, potentiation of ACh EC20 response). Also noted: Emax: dose or concentration left out as unconfirmed. A general note: A change in cytosolic calcium serves as a functional read-out for many receptors and channels.

Data set [4] is described as follows: In vitro DMPK: rat fraction unbound in plasma. Type of data set: in vitro ADME. Conditions: read-out: Rat Fu (plasma). On the procedure:
(§1) Compound 1 was tested in several in vitro assays to investigate both metabolism and pharmacokinetics. These assays were performed according to known methods as generally described in the following references: Conde-Ceide et al. ACS Med. Chem. Lett. 2015, 6, 716-720; Morris et al. J. Med. Chem. 2014, 57, 10192-10197; and Bubser et al. ACS Chem. Neurosci. 2014, 5, 920-942.

A short description of data set [5]: In vitro DMPK: rat fraction unbound in brain. Type of data set: in vitro ADME. Conditions: read-out: Rat Fu (brain). On the procedure: as §1
A short description of data set [6]: In vitro DMPK: rat predicted hepatic clearance. The class given is in vitro ADME. The method, then:
as §1

Data set [7] can be described thus: In vitro DMPK: human predicted hepatic clearance. Type of data set: in vitro ADME. On the procedure: as §1
Data set [8] is described as follows: In vitro DMPK: human fraction unbound in plasma. Type of data set: in vitro ADME. The conditions noted are these: read-out: Human Fu (plasma). On the procedure:
as §1

The nature of data set [9]: In vivo DMPK in rat (plasma clearance, brain:plasma distribution). The conditions noted are these: read-out: Rat CLp.
The conditions of data set [10]: human, in vivo; cited from earlier work.

For `CCCCCCOc1nsnc1C1=CCCN(C)C1` [xanomeline], the “activity in animal models with profiles similar to known antipsychotic drugs” value in data set [1] is “active in animal models”. Further, in data set [2], the “effect on psychotic behavioral symptoms” value is given as “reduce psychotic behavioral symptoms”.
For `Cc1c(C(F)F)nnc2sc3c(NCc4ccc(C(C)(O)C5CC5)cc4)ncnc3c12` (stereo not shown) [Compound 10, 1-cyclopropyl-1-(4-(((3-(difluoromethyl)-4-methylpyrimido[4′,5′:4,5]thieno[2,3-c]pyridazin-8-yl)amino)methyl)phenyl)ethan-1-ol], in data set [3], the concentration for a half-maximal effect (EC50) (as a rule, the concentration that produces a half-maximal response) was determined as 0.86 µM and the maximum response (Emax) – broadly, the greatest response seen or fitted, relative to the assay's reference – stood at 95.5%.
As for `Cc1c(C(F)F)nnc2sc3c(NCc4ccc(C(C)(C)O)cc4)ncnc3c12` [Compound 1, 2-(4-(((3-(Difluoromethyl)-4-methylpyrimido[4′,5′:4,5]thieno[2,3-c]pyridazin-8-yl)amino)methyl)phenyl)propan-2-ol], the fraction unbound in data set [4] was 0.012; in data set [5], 0.006; in data set [8], 0.01. For the same molecule, the “Rat Predicted CLhep (mL/min/kg) Method A” value in [6] is 19.1 mL/min/kg. Moreover, the figures for the “Human Predicted CLhep (mL/min/kg) Method A” value in [7] (Method A (first line)) and in data set [7] (second line also printed as Method A) were 6.69 mL/min/kg and 0.34 mL/min/kg, respectively. The clearance in [9] is 2.67 mL/min/kg. Besides, the Emax in data set [3] turned out to be 98.7%.
For the molecule `Cc1c(C(F)F)nnc2sc3c(N4CC5(COC5)C4)ncnc3c12` [Compound 4, 6-(3-(difluoromethyl)-4-methylpyrimido[4′,5′:4,5]thieno[2,3-c]pyridazin-8-yl)-2-oxa-6-azaspiro[3.3]heptane], in data set [3], the EC50 is 0.0841 µM and the Emax came to 82.7%.
On to `[2H]C([2H])(Nc1ncnc2c1sc1nnc(C(F)F)c(C)c12)c1ccc(C(C)(C)O)cc1` [Compound 8, 2-(4-(((3-(difluoromethyl)-4-methylpyrimido[4′,5′:4,5]thieno[2,3-c]pyridazin-8-yl)amino)methyl-d2)phenyl)propan-2-ol], for which, in data set [3], the EC50 worked out at 0.528 µM and the Emax was determined as 95.8%.
For the molecule `Cc1ccccc1OC1CCN(c2ncnc3c2sc2nnc(C(F)F)c(C)c23)C1` (stereo not shown) [Compound 11, 3-(difluoromethyl)-4-methyl-8-(3-(o-tolyloxy)pyrrolidin-1-yl)pyrimido[4′,5′:4,5]thieno[2,3-c]pyridazine], in [3], the 50% effective concentration (EC50) is over 10 µM and the Emax turned out to be 68.7%.
Take `Cc1c(C(F)F)nnc2sc3c(N4CCCC4)ncnc3c12` [Compound 3, 3-(difluoromethyl)-4-methyl-8-(pyrrolidin-1-yl)pyrimido[4′,5′:4,5]thieno[2,3-c]pyridazine]: in data set [3], the EC50 is 0.238 µM and the maximal effect (Emax) was found to be 83.5%.
Turning to `COc1ccc(CNc2ncnc3c2sc2nnc(C(F)F)c(C)c23)cc1F` [Compound 2, 3-(difluoromethyl)-N-(3-fluoro-4-methoxybenzyl)-4-methylpyrimido[4′,5′:4,5]thieno[2,3-c]pyridazin-8-amine], in data set [3], the concentration giving a half-maximal response (EC50) was 0.581 µM and the Emax amounted to 79.8%.
The like results for `Cc1c(C(F)F)nnc2sc3c(N4CC(CO)(CO)C4)ncnc3c12` [Compound 5, (1-(3-(difluoromethyl)-4-methylpyrimido[4′,5′:4,5]thieno[2,3-c]pyridazin-8-yl)azetidine-3,3-diyl)dimethanol] were, in that order, 1.06 µM and 81.9%.
As to `Cc1c(C(F)F)nnc2sc3c(NCc4ccc(C5(O)CCC5)cc4)ncnc3c12` [Compound 9, 1-(4-(((3-(difluoromethyl)-4-methylpyrimido[4′,5′:4,5]thieno[2,3-c]pyridazin-8-yl)amino)methyl)phenyl)cyclobutan-1-ol], in data set [3], the concentration for a half-maximal effect (EC50) was 0.809 µM and the Emax turned out to be 95.5%.
As for `Nc1c2c(nc3ccccc13)CCCC2` [tacrine], the “patients with elevated liver transaminases (hepatotoxicity)” value in data set [10] is listed as “about 30%”.
In the case of `Cc1c(C(F)F)nnc2sc3c(NC4CCCC4)ncnc3c12` [Compound 7, N-cyclopentyl-3-(difluoromethyl)-4-methylpyrimido[4′,5′:4,5]thieno[2,3-c]pyridazin-8-amine], in [3], the EC50 was found to be 0.271 µM and the Emax was found to be 95.4%.
For `Cc1c(C(F)F)nnc2sc3c(N4CCOCC4)ncnc3c12` [Compound 6, 4-(3-(difluoromethyl)-4-methylpyrimido[4′,5′:4,5]thieno[2,3-c]pyridazin-8-yl)morpholine], in data set [3], the half-maximal effective concentration (EC50) was found to be 0.572 µM and the maximal effect (Emax) came out at 72.2%.
